Test results as given in article PMC4520450, “Procyanidins Negatively Affect the Activity of the Phosphatases of Regenerating Liver” (PLoS ONE, 2015).

How the values were obtained:
[1] = biological target: T1, PRL-3 (Homo sapiens, UniProt O75365); test: DiFMUP phosphatase activity assay for PRLs; type: biochemical; details: for IC50: 50 nM PRL-3, 30 min preincubation, 25°C, 21 μM DiFMUP, mean ± SEM (n = 3–5), read-out: IC50 (Ki) PRL-3
T1 construct: His-TEV (cleaved yes); made in house
Protocol: Biochemical phosphatase activity measurements were carried out in the presence of different concentrations of various polyphenols, compounds 1–11 (Fig 1), using recombinant PRL-3 and 6,8-difluoro-4-methylumbelliferyl phosphate (DiFMUP) as a fluorogenic substrate (see the experimental procedures). We observed that the monomeric epicatechins EGC and EC inhibit PRL-3 only weakly, with a slightly better activity of EGC, which bears three hydroxyl groups at the B-ring. […] In general, as a basic structure activity-relationship the following trend was observed: a higher number of hydroxyl groups at the B-ring increased the activity slightly. […] The influence of the stereochemistry at C(2)–C(3) was studied by using GCG (the trans-epimer of EGCG).
(§1) Fig 2 Effect of polyphenolic compounds 8 (A), 9 (B), 10 (C) and 11 (D) on the phosphatase activity of PRL-1, PRL-2, PRL-3, PP1, and PP2A. Proteins were incubated for 30 min with 0–1000 μM of the corresponding procyandin 8–11. Phosphatase activity was measured in the presence of DiFMUP at 25°C using the concentration corresponding to the KM of each protein. The KM for PRLs was determined separately (PRL-3 = 21 μM, PRL-2 and PRL-1 = 24 μM). The KM for PP1 (91 μM) and for PP2A (100 μM) was taken from the literature. Protein concentrations are 50 nM for all PRLs and 2 mU for PP1 and 0.05 U for PP2A (see the Experimental Procedures). Phosphatase activity in the absence of inhibitors was set as 100%. Data represent means ± standard errors of the mean (n = 3–5).
(§2) DiFMUP assay for PRLs: In a final reaction volume of 100 μL the PRLs (50 nM final concentration) were incubated with decreasing concentrations of the inhibitory polyphenols for 30 minutes at 25°C. The buffer conditions were 108 mM TrisCl (pH 7.5), Triton 0.05% (v/v), DTT 27.0 mM, NaCl 811 mM. After the incubation time 20 μL DiFMUP (6,8-Difluoro-4-methylumbelliferyl phosphate) was added to reach a final concentration of 21 μM for PRL-3 and 24 μM for PRL-1 and PRL-2. On a Tecan safire2 (Tecan, Salzburg, Austria) plate reader dephosphorylation of the substrate to its fluorescent product was monitored by following the emission at 358 nm with excitation at 452 nm for 20 minutes. All measurements were done in triplicates, and the experiments were repeated at least three times. The slopes of the initial phases were obtained by linear regression of the data points. The normalized reaction rates were plotted versus the log of the inhibitor concentrations and the IC50 values were obtained by fitting the curves using the one site competition model of GraphPad Prism (GraphPad Software, Version 5). KM values were determined by measuring reaction kinetics of substrate dilution series. Initial velocities were plotted against DiFMUP concentration and the data was analyzed by Michaelis-Menten kinetics curve fitting of GraphPad Prism. A final DMSO content of 0.4% was maintained for the monomeric catechins. Due to the high water solubility of the procyanidins DMSO was not required and measurements were done in assay buffer only.

[2] = biological target: protein phosphatase-1; parameters: method as in PMID 22260360; details: cited from earlier work
[3] = system: PP2A; parameters: method as in PMID 22260360; details: cited from earlier work
[4] = biological target: T2, PRL-1 (Homo sapiens, UniProt Q93096); test: DiFMUP phosphatase activity assay for PRLs; type: biochemical; details: 50 nM PRL-1, 30 min preincubation, 25°C, 24 μM DiFMUP; mean ± SEM (n = 3–5); read-out: IC50 (Ki) PRL-1
T2 construct: His-TEV (cleaved yes); made in house
T2 sequence (Q93096 1-173): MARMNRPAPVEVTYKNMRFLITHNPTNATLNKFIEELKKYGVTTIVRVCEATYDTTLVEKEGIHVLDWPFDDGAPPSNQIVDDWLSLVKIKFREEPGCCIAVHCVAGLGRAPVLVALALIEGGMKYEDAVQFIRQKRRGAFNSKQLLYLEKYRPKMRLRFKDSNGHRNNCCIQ
Protocol: as §1, §2

[5] = biological target: T3, PRL-2 (Homo sapiens, UniProt Q12974); test: DiFMUP phosphatase activity assay for PRLs; type: biochemical; details: 50 nM PRL-2, 30 min preincubation, 25°C, 24 μM DiFMUP; mean ± SEM (n = 3–5); read-out: IC50 (Ki) PRL-2
T3 construct: His-TEV (cleaved yes); made in house
T3 sequence (Q12974 1-167): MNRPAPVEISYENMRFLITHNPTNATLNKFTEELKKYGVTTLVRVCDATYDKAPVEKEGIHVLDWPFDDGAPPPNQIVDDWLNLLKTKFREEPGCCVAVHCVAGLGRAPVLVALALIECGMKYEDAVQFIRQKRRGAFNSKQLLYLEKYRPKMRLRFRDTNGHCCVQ
Protocol: as §1, §2

[6] = biological target: T4, PP1 (Oryctolagus cuniculus, UniProt P62139); test: DiFMUP assay for PP1; type: biochemical
T4 construct: purchased NewEngland Biolabs; host or cells: E. coli
T4 sequence (P62139 whole entry): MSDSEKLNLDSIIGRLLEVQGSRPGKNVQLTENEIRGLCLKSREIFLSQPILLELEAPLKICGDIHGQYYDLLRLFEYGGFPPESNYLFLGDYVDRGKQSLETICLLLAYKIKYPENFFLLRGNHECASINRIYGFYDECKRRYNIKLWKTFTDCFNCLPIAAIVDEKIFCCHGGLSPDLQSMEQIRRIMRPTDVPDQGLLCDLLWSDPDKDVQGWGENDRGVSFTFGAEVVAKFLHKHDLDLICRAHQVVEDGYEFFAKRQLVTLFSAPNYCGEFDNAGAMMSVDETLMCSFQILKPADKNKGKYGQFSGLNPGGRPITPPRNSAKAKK
Protocol: as §1
(§3) BSA, which is usually supplemented to the assay buffer for stabilizing the PPs was however excluded, as BSA is known to form complexes with polyphenolic compounds [40–42] and thus would decrease the concentrations of the inhibitor in the assay. […] In contrast, the phosphatase activity of PP2A was suppressed to a much lesser extent with weak (for trimer 9 and hexamer 11) and strong statistical significance (dimer 8 and tetramer 10). Thus our results corroborate the data reported previously.
DiFMUP assay for PP1: In a final reaction volume of 100 μL PP1c (2 mU final concentration, according to manufacturer’s instructions) were incubated with decreasing concentrations of the inhibitory polyphenols for 30 minutes at 25°C. The assay buffer contained 25 mM imidazole (pH 7.4), 1 mM dithiothreitol (DTT), and 50 mM NaCl. Bovine serum albumin (BSA) was excluded due to possible binding of the polyphenolic compounds. After the incubation time 20 μL DiFMUP (6,8-Difluoro-4-methylumbelliferyl phosphate) was added to reach a final concentration of 100 μM. Monitoring of the fluorescent dephosphorylation product was monitored and data analyzed as described above.

[7] = biological target: T5, PP2A (Homo sapiens, UniProt P67775); test: DiFMUP assay for PP2A; type: biochemical; details: 0.05 U PP2A, 30 min preincubation, 25°C, no BSA, mean ± SEM (n = 3–5), read-out: IC50 (Ki) PP2A
T5 construct: purified from human red blood cells; purchased Merck Millipore; host or cells: human red blood cells
T5 sequence (P67775 whole entry): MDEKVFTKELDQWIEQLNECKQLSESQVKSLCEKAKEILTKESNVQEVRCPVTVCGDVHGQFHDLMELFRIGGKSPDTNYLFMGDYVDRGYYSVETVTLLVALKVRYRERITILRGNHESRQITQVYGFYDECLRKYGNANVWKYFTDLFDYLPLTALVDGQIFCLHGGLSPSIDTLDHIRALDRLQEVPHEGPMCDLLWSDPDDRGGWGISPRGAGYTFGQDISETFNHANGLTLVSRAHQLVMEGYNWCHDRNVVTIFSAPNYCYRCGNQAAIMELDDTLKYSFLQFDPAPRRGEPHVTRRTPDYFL
T5 sequence (P30153 2-589 partner limits assumed): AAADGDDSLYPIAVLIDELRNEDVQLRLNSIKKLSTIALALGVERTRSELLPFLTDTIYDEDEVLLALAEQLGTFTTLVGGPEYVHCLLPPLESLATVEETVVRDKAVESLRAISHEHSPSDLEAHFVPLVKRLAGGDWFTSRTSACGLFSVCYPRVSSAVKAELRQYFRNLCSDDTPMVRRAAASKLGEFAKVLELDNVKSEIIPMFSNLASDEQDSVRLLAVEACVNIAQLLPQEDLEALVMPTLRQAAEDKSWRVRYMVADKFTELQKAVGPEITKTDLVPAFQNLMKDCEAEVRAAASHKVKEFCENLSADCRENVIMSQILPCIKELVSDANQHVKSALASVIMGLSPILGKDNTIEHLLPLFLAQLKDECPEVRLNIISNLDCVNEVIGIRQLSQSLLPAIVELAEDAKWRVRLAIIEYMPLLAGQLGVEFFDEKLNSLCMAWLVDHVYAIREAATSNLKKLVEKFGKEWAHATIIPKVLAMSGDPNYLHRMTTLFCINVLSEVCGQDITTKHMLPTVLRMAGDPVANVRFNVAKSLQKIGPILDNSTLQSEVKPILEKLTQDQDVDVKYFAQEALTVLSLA
Protocol: as §1, §3
Chemicals and vendors were as follows: Synthesis of Procyanidins (dimer to dodecamer) was done as previously reported. EGCG, EGC, ECG and EC were synthesized as previously reported or purchased from Sigma. (+)-Catechin and 3-(4,5-dimethylthiazol-2-yl)-2,5-diphenyltetrazolium bromide (MTT) were obtained from Sigma. 6,8-Difluoro-4-Methylumbelliferyl Phosphate (DiFMUP), propidium iodide and calcein AM were from lifescience technologies. Cell dissociation solution (10X) was purchased from amsbio. PP1c (recombinant from E. coli) was purchased from NewEngland Biolabs and PP2A (purified from human red blood cells, contains different subunits according to manufacturer) from Merck Millipore. Transwell plates (BRANDplates) and insert stripes for the migration assay were purchased from Brand GmbH. Black 96 well plates (96F Nunclon Delta) were purchased from Thermo Scientific. Transparent 96 well assay plates with UV transparent bottom were purchased from Corning Inc. Wound healing experiments were carried out with μ-dish 35 mm culture inserts, which were purchased from Ibidi.
DiFMUP assay for PP2A: In a final reaction volume of 100 μL PP2A (0.05 U final concentration, according to manufacturer’s instructions) were incubated with decreasing concentrations of the inhibitory polyphenols for 30 minutes at 25°C. The assay buffer contained 50 mM TrisCl (pH 7.5), 250 mM NaCl, 0.1 mM EDTA, 1 mM MnCl2, and 2 mM dithiothreitol (DTT). […] Monitoring of the fluorescent dephosphorylation product was monitored and data analyzed as described above.

[8] = biological target: T2, PRL-1; test: DiFMUP phosphatase activity assay for PRLs; type: biochemical; details: Michaelis-Menten and Lineweaver-Burk analysis, DiFMUP hydrolysis
[9] = biological target: T1, PRL-3; parameters: method as in PMID 20873564; details: cited from earlier work
[10] = system: Caco-2 cell model; parameters: method as in PMID 23885956; details: cited from earlier work
[11] = Michaelis-Menten and Lineweaver-Burk analysis, DiFMUP hydrolysis

T1 sequence (O75365 whole entry): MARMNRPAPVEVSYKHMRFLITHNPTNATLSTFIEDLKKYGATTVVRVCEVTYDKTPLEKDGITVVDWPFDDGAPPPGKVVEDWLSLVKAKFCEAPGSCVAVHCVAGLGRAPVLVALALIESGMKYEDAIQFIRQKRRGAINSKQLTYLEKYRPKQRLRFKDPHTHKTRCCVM

For O=C(O[C@@H]1Cc2c(O)cc(O)cc2O[C@@H]1c1cc(O)c(O)c(O)c1)c1cc(O)c(O)c(O)c1 [EGCG (4)], the “increase in PRL-3 inhibition of 3-gallate ester compared to non-gallate (2 vs 1, 4 vs 3)” value [1] is listed as “about two-fold increase”, the IC50 [1] is listed as 121 ± 5.7 µM and the IC50 [2] is listed as 1350 nM. For the same compound, the “activity toward PP2A relative to PP1” value [3] was “ten-fold lower activity”.
In the case of Oc1cc(O)c2c(c1)O[C@H](c1ccc(O)c(O)c1)[C@@H](O)[C@@H]2c1c(O)cc(O)c2c1O[C@H](c1ccc(O)c(O)c1)[C@@H](O)[C@@H]2c1c(O)cc(O)c2c1O[C@H](c1ccc(O)c(O)c1)[C@@H](O)[C@@H]2c1c(O)cc(O)c2c1O[C@H](c1ccc(O)c(O)c1)[C@@H](O)C2 [Tetramer (10)], the IC50 [1] is reported as 16.3 ± 2.3 µM, the “type of inhibition, PRL-3” value [1, 11] is reported as “noncompetitive” and the IC50 [4] is reported as 2200 ± 1100 nM. For the same compound, the IC50 [5] was 13.4 ± 2.5 µM, the IC50 ([6]; 2 mU PP1c, 30 min preincubation, 25°C, DiFMUP, no BSA, mean ± SEM (n = 3–5), read-out: IC50 (Ki) PP1) was 13.8 ± 2.9 µM and the “type of inhibition, PP1” value [6, 11] was “noncompetitive”. For the same compound, the IC50 [7] was 77.9 ± 10.7 µM and the “type of inhibition, PRL-1” value [8] was “noncompetitive”.
For O=c1c(O)c(-c2ccc(O)c(O)c2)oc2c(O[C@@H]3O[C@H](CO)[C@@H](O)[C@H](O)[C@H]3O)c(O)cc(O)c12 [gossypin], the “PRL-3 phosphatase inhibition in vitro” value [9] is listed as “moderate phosphatase inhibition”.
For O=c1c(O)c(-c2cc(O)c(O)c(O)c2)oc2cc(O)cc(O)c12 [myricetin], the “PRL-3 phosphatase inhibition in vitro” value [9] is listed as “moderate phosphatase inhibition”.
For Oc1cc(O)c2c(c1)O[C@H](c1ccc(O)c(O)c1)[C@H](O)[C@H]2c1c(O)cc(O)c2c1O[C@H](c1ccc(O)c(O)c1)[C@H](O)[C@H]2c1c(O)cc(O)c2c1O[C@H](c1ccc(O)c(O)c1)[C@H](O)C2 [procyanidin C1, reference compound], the permeation [10] is given as “no permeation was detected”.
